Laboratory results: patent US20260364214A1, “MULTIVALENT FIBROBLAST ACTIVATION PROTEIN LIGANDS FOR TARGETED DELIVERY APPLICATIONS” (Philochem AG, priority 2022, published 2026)
pIC50: −log10 of the molar value.

target: T1, recombinant hFAP (Homo sapiens, UniProt Q12884); assay: hFAP inhibition assay (Z-Gly-Pro-AMC substrate); assay type: biochemical; conditions: Z-Gly-Pro-AMC 20 μM; protein 66 μM; pH 7.4; room temperature
T1 sequence (Q12884 26-760 limits assumed): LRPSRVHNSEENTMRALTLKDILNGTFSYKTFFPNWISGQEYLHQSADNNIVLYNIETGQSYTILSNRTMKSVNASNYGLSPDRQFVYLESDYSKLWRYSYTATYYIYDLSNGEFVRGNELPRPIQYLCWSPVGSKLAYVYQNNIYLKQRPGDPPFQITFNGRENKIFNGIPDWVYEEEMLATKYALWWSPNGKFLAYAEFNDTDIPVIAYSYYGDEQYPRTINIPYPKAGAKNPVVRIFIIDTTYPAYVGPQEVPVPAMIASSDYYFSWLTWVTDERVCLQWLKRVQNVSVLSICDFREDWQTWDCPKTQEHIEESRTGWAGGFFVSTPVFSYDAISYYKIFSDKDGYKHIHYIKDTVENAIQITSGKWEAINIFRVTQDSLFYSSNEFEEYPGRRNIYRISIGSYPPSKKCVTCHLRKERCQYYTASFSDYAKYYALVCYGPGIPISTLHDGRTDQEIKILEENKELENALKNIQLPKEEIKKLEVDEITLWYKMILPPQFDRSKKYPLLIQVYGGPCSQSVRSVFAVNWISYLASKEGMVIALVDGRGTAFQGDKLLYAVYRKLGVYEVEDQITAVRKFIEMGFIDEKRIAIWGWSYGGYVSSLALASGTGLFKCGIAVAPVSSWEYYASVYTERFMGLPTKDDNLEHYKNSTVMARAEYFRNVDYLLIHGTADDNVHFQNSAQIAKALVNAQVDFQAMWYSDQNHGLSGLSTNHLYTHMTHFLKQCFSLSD
Description: (§1) Enzymatic activity of hFAP on the Z-Gly-Pro-AMC substrate was measured at room temperature on a microtiter plate reader, monitoring the fluorescence at an excitation wavelength of 360 nm and an emission wavelength of 465 nm. The reaction mixture contained substrate (20 μM), protein (66 μM, constant), assay buffer (50 mM Tris, 100 mM NaCl, and 1 mM EDTA, pH=7.4), and inhibitors with serial dilution from 167 nM to 80 fM, 1:2 in a total volume of 20 μL. Experiments were performed in triplicate, and the mean fluorescence values were fitted using Prism 7. The value is defined as the concentration of inhibitor required to reduce the enzyme activity by 50% after addition of the substrate [FIG. 1 and FIG. 8].
According to the same procedure, further comparative inhibition assays with trimeric binders having inter alia different lengths of linker group B and/or different payload groups C were performed with compounds Tri-ESV6-ValCit-MMAE (14), Tri-ESV6-linker-DOTAGA (13) and diastereoisomers of Tri-ESV6-DOTAGA (11, 12) [FIG. 18]. Comparative hFAP inhibition assays with tetravalent binders 10 and 29 were also performed [FIG. 20].
as §1, with “substrate.” for “substrate [FIG. 1 and FIG. 8].”
as §1, with “e) Inhibition assay with Tri-ESV6-DOTAGA, Tetra-ESV6-DOTAGA, Hexa-ESV6-DOTAGA, Octa-ESV6-DOTAGA, ESV6-L-DOTAGA and BI-ESV6-L-DOTAGA. Enzymatic” for “Enzymatic”, “substrate.” for “substrate [FIG. 1 and FIG. 8].”

pIC50 | Compound
9.56 | N#C[C@@H]1CC(F)(F)CN1C(=O)CNC(=O)c1ccnc2c(NC(=O)CCC(=O)NCCOCCOCCOCCOCCOCCOCCC(=O)NCCNC(=O)CCOCC(COCCC(=O)NCCNC(=O)CCOCCOCCOCCOCCOCCOCCNC(=O)CCC(=O)Nc3cccc4c(C(=O)NCC(=O)N5CC(F)(F)C[C@H]5C#N)ccnc34)(COCCC(=O)NCCNC(=O)CCOCCOCCOCCOCCOCCOCCNC(=O)CCC(=O)Nc3cccc4c(C(=O)NCC(=O)N5CC(F)(F)C[C@H]5C#N)ccnc34)NC(=O)CCC(C(=O)O)N3CCN(CC(=O)O)CCN(CC(=O)O)CCN(CC(=O)O)CC3)cccc12 (stereo partly shown) [Tri-ESV6-PEG6-DOTAGA]
10.42 | N#C[C@@H]1CC(F)(F)CN1C(=O)CNC(=O)c1ccnc2c(NC(=O)CCC(=O)NCCOCCOCCC(=O)NCCNC(=O)CCOCC(COCCC(=O)NCCNC(=O)CCOCCOCCNC(=O)CCC(=O)Nc3cccc4c(C(=O)NCC(=O)N5CC(F)(F)C[C@H]5C#N)ccnc34)(COCCC(=O)NCCNC(=O)CCOCCOCCNC(=O)CCC(=O)Nc3cccc4c(C(=O)NCC(=O)N5CC(F)(F)C[C@H]5C#N)ccnc34)NC(=O)CCC(C(=O)O)N3CCN(CC(=O)O)CCN(CC(=O)O)CCN(CC(=O)O)CC3)cccc12 (stereo partly shown) [Tri-ESV6-PEG2-DOTAGA]
9.90 | N#C[C@@H]1CC(F)(F)CN1C(=O)CNC(=O)c1ccnc2c(NC(=O)CCC(=O)NCCOCCOCCOCCOCCC(=O)NCCNC(=O)CCOCC(COCCC(=O)NCCNC(=O)CCOCCOCCOCCOCCNC(=O)CCC(=O)Nc3cccc4c(C(=O)NCC(=O)N5CC(F)(F)C[C@H]5C#N)ccnc34)(COCCC(=O)NCCNC(=O)CCOCCOCCOCCOCCNC(=O)CCC(=O)Nc3cccc4c(C(=O)NCC(=O)N5CC(F)(F)C[C@H]5C#N)ccnc34)NC(=O)CCC(C(=O)O)N3CCN(CC(=O)O)CCN(CC(=O)O)CCN(CC(=O)O)CC3)cccc12 (stereo partly shown) [Tri-ESV6-PEG4-DOTAGA]
8.96 | N#C[C@@H]1CC(F)(F)CN1C(=O)CNC(=O)c1ccnc2c(NC(=O)CCC(=O)NCCOCCOCCOCCOCCOCCOCCOCCOCCC(=O)NCCNC(=O)CCOCC(COCCC(=O)NCCNC(=O)CCOCCOCCOCCOCCOCCOCCOCCOCCNC(=O)CCC(=O)Nc3cccc4c(C(=O)NCC(=O)N5CC(F)(F)C[C@H]5C#N)ccnc34)(COCCC(=O)NCCNC(=O)CCOCCOCCOCCOCCOCCOCCOCCOCCNC(=O)CCC(=O)Nc3cccc4c(C(=O)NCC(=O)N5CC(F)(F)C[C@H]5C#N)ccnc34)NC(=O)CCC(C(=O)O)N3CCN(CC(=O)O)CCN(CC(=O)O)CCN(CC(=O)O)CC3)cccc12 (stereo partly shown) [Tri-ESV6-PEG8-DOTAGA]

same assay, conditions: recombinant hFAP

Compound | IC50 / inhibitory activity, comparison in words
N#C[C@@H]1CC(F)(F)CN1C(=O)CNC(=O)c1ccnc2c(NC(=O)CCC(=O)NCCCCC(NC(=O)CCC(=O)Nc3cccc4c(C(=O)NCC(=O)N5CC(F)(F)C[C@H]5C#N)ccnc34)C(=O)NCCNC(=O)CCC(C(=O)O)N3CCN(CC(=O)O)CCN(CC(=O)O)CCN(CC(=O)O)CC3)cccc12 (stereo partly shown) [Bi-ESV6-DOTAGA, reference compound] | IC50 comparable to the ones of original derivatives
N#C[C@@H]1CC(F)(F)CN1C(=O)CNC(=O)c1ccnc2c(NC(=O)CCC(=O)NCCNC(=O)CCOCCNC(=O)CCC(C(=O)O)N3CCN(CC(=O)O)CCN(CC(=O)O)CCN(CC(=O)O)CC3)cccc12 (stereo partly drawn) [ESV6-L-DOTAGA] | IC50 comparable to the ones of original derivatives
N#C[C@@H]1CC(F)(F)CN1C(=O)CNC(=O)c1ccnc2c(NC(=O)CCC(=O)NCCNC(=O)CCOCC(COCCC(=O)NCCNC(=O)CCC(=O)Nc3cccc4c(C(=O)NCC(=O)N5CC(F)(F)C[C@H]5C#N)ccnc34)NC(=O)CCOCC(COCCC(=O)NC(COCCC(=O)NCCNC(=O)CCC(=O)Nc3cccc4c(C(=O)NCC(=O)N5CC(F)(F)C[C@H]5C#N)ccnc34)COCCC(=O)NCCNC(=O)CCC(=O)Nc3cccc4c(C(=O)NCC(=O)N5CC(F)(F)C[C@H]5C#N)ccnc34)NC(=O)CCC(C(=O)O)N3CCN(CC(=O)O)CCN(CC(=O)O)CCN(CC(=O)O)CC3)cccc12 (stereo partly shown) [Tetra-ESV6-DOTAGA] | directly proportional to the valency until Tetra-ESV6-DOTAGA
